Test results: US20190307732A1, “METHODS OF TREATING MITOCHONDRIAL AND METABOLIC DISORDERS” (Abraxis Bioscience, LLC, priority 2016, published 2019)

Test system: S6 phosphorylation
Assay: Inhibition of S6 phosphorylation (pS6) in IMR90 fibroblast lysates
Format: cell-based
Settings: Homo sapiens, IMR-90; IMR90 fibroblasts; dose of 1 ng/mL; FIG. 2
Experimental: IMR90 fibroblasts were administered varying doses of nab-sirolimus or rapamycin. Cell lysates were used to determine inhibition of S6 phosphorylation. Presence of vimentin. S6, and phosphorylated S6 (pS6) was measured.

CO[C@H]1C[C@@H]2CC[C@@H](C)[C@@](O)(O2)C(=O)C(=O)N2CCCC[C@H]2C(=O)O[C@H]([C@H](C)C[C@@H]2CC[C@@H](O)[C@H](OC)C2)CC(=O)[C@H](C)/C=C(\C)[C@@H](O)[C@@H](OC)C(=O)[C@H](C)C[C@H](C)/C=C/C=C/C=C/1C [rapamycin]
inhibition at 0.001 µg/mL: 100%
